Measurements published in PubChem BioAssay (NCI).
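The compound was tested at five concentrations on cells cultured in 96-well plates, with a 48-hour exposure period. The concentration for 50% growth inhibition is given as GI50. TGI is the concentration that stops growth completely.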

What was measured:
Assay in all cases: inhibition of tumour cell growth, NCI panel, 48 h
MALME-3M melanoma = system: MALME-3M melanoma
NCI-H460 lung = system: NCI-H460 lung
NCI-H522 lung = system: NCI-H522 lung
NCI/ADR-RES ovarian = system: NCI/ADR-RES ovarian
PC-3 prostate = system: PC-3 prostate
RXF 393 renal = system: RXF 393 renal
SF-268 CNS = system: SF-268 CNS
SF-295 CNS = system: SF-295 CNS
SK-MEL-2 melanoma = system: SK-MEL-2 melanoma
SK-OV-3 ovarian = system: SK-OV-3 ovarian

| SMILES | GI50 (MALME-3M melanoma) [µM] | TGI (MALME-3M melanoma) [µM] | GI50 (NCI-H460 lung) [µM] | TGI (NCI-H460 lung) [µM] | GI50 (NCI-H522 lung) [µM] | TGI (NCI-H522 lung) [µM] | GI50 (NCI/ADR-RES ovarian) [µM] | TGI (NCI/ADR-RES ovarian) [µM] | GI50 (PC-3 prostate) [µM] | TGI (PC-3 prostate) [µM] | GI50 (RXF 393 renal) [µM] | TGI (RXF 393 renal) [µM] | GI50 (SF-268 CNS) [µM] | TGI (SF-268 CNS) [µM] | GI50 (SF-295 CNS) [µM] | TGI (SF-295 CNS) [µM] | GI50 (SK-MEL-2 melanoma) [µM] | TGI (SK-MEL-2 melanoma) [µM] | GI50 (SK-OV-3 ovarian) [µM] | TGI (SK-OV-3 ovarian) [µM] |
| --- | --- | --- | --- | --- | --- | --- | --- | --- | --- | --- | --- | --- | --- | --- | --- | --- | --- | --- | --- | --- |
| O=C(c1ccccc1)c1ccccc1-c1ccccc1 | 8.79 | 65.7 | 3.35 | 18.2 | 0.74 | 4.06 | 1 | 8.02 | 3.67 | > 100 | 3.17 | 22.7 | 6.55 | > 100 | 1.85 | 29 | 1.65 | 9.48 | 3.54 | 25.2 |
| CCOc1cccc(/C=N/N=C2\C(=O)Nc3c(Cl)cc(Cl)cc32)c1O |  | > 100 |  | > 100 |  |  |  | > 100 |  | > 100 |  | > 100 |  |  |  | > 100 |  | > 100 |  | > 100 |
| COc1ccc(-c2nn(-c3cccc(Cl)c3)cc2-c2cc(-c3cccs3)[nH]c(=S)n2)cc1 | 3.49 | 15.8 | 3.01 | 11 | 2.54 | 8.86 | 4.77 | 41.8 | 3.09 | > 100 | 3.76 | 19.5 | 4.52 | 73.6 | 2.07 | 7.09 | 2.87 | 6.9 | 5.91 | 36.8 |
| O=C(Nc1ccc([As](=O)(O)O)cc1)Nc1cccc(Cl)c1Cl |  | > 100 |  | > 100 |  | > 100 |  | > 100 |  | > 100 |  | 67.7 |  | > 100 |  | > 100 |  | > 100 |  | > 100 |
| ClCc1cccc2c(CCl)cccc12 | 2.37 | 25.5 | 0.767 | 2.65 | 2.83 | 16.3 | 2.58 | 12.1 | 4.21 | 19.7 | 3.33 | 18 | 2.95 | 15 | 5.59 | 19.5 | 20.4 | 67.4 | 21.2 | > 100 |
| CC(C)Cn1cnc2c(SCc3ccc(Cl)cc3Cl)nc(N)nc21 |  | 71.6 |  | 35.4 |  | 37 |  | > 100 |  | > 100 |  | > 100 |  | > 100 |  | > 100 |  | > 100 |  | > 100 |
| COc1cc(/C=C\c2cc(OC)c(OC)c(OC)c2)cc(NC(=O)/C=C/c2cc(OC)c(OC)c(OC)c2)c1OC | 3.34 | > 100 | 5.39 | > 100 | 2.73 | > 100 | 2.77 | > 100 | 3.02 | > 100 | 4.77 | > 100 | > 100 | > 100 |  |  | 2.69 | 9.77 | 6.62 | > 100 |
| CCN(Cc1ccc(Cl)cc1)c1ccc(CO)c(Cl)c1 | 12.8 | 28.5 | 0.348 | 10.9 | 7.55 | 22.6 | 5.59 | 20.9 | 11.5 | 27.7 | 2.07 | 13.3 | 13.5 | 29.6 | 0.997 | 12.1 | 1.75 | 10.6 | 2.6 | 12.9 |
| CCOC(=O)N1CCN(/[N+]([O-])=N/Oc2ccc([N+](=O)[O-])cc2[N+](=O)[O-])CC1 | 1.59 | 4.05 | 4.41 | 18 | 4.36 | 22.4 | 3.88 | 14.9 | 3.48 | 16.7 | 1.95 | 5.9 | 3.86 | 10.6 | 1.73 | 4.56 | 7.08 | 25.9 | 5.61 | 18.4 |
| Cc1c[n+](=O)c2ccccc2n1[O-] |  | > 100 |  | > 100 |  | > 100 |  | > 100 |  | > 100 |  | > 100 |  | > 100 |  | > 100 |  | > 100 |  | > 100 |
| Oc1c(-c2nnc(-c3ccccc3Cl)o2)sc2nnc(-c3ccccc3)c(-c3ccccc3)c12 | 4.22 | 33.1 | 1.73 | 15.3 | 3.59 | 23.5 | 1.09 | > 100 | 3.15 | > 100 | 24.6 | > 100 | 6.27 | > 100 | 1.89 | 15.6 | 3.23 | 15.7 | 5.14 | > 100 |
| CNC(=O)Nc1nc2ccc([N+](=O)[O-])cc2[nH]1 |  | > 100 |  | > 100 |  | > 100 |  | > 100 |  | > 100 |  | > 100 |  | > 100 |  | > 100 |  | > 100 |  | > 100 |
| COc1cc(C(O)CCBr)c(OC)cc1C (centres undefined) |  | > 100 |  | > 100 |  | > 66.3 |  | > 57.6 |  | > 73 |  | > 100 |  | > 100 |  | > 73.1 |  | 68.2 |  | > 73.6 |
| C/C=C(\C)C(=O)NC1=CC[C@@]2(C)C(=CCC3C2CC[C@@]2(C)C3CC[C@@H]2C(C)N(C)C)C1=O (some centres undefined) | 2.1 | 5.34 | 2.06 | 4.98 | 7.79 | 24 | 6.44 | 42.5 | 2.5 | 17.7 | 1.56 | 4.53 | 2.14 | 6.93 | 2.32 | 7.33 | 7.52 | 22.9 | 11.6 | 29.8 |
| CC1(C)C2CCC13C(=O)C1OC3(C2)C2C(=O)c3cc4ccccc4cc3C(=O)C12 (centres undefined) | 7.3 | 43.8 | 5.48 | > 100 | 23.1 | > 100 | 2.71 | 15.9 | 3.85 | 27.8 | 8.4 | 46.2 | 5.29 | 82.4 |  |  | 42.2 | > 100 | 12.2 | 67.4 |
